Test results published in PMC3270411 (Chemistry & biology, 2012).

Legend:
Assay in all cases: KiNativ cellular kinase profiling
Assay type in all cases: cell-based
GSK3B = GSK3B (Homo sapiens, UniProt P49841); conditions: for Percent inhibition of kinase labeling by ATP-biotin: A375 cells, 1 μM, 3 hours, GSK3B, labeling site Lys2; for inhibition at 1 µM: A-375, read-out: Percent inhibition of kinase labeling by ATP-biotin
PFTAIRE1 = PFTAIRE1 (Homo sapiens, UniProt O94921); conditions: for Percent inhibition of kinase labeling by ATP-biotin: A375 cells, 1 μM, 3 hours, PFTAIRE1, labeling site Lys1; for inhibition at 1 µM: A-375, read-out: Percent inhibition of kinase labeling by ATP-biotin
PFTAIRE1, sequence (O94921 whole entry): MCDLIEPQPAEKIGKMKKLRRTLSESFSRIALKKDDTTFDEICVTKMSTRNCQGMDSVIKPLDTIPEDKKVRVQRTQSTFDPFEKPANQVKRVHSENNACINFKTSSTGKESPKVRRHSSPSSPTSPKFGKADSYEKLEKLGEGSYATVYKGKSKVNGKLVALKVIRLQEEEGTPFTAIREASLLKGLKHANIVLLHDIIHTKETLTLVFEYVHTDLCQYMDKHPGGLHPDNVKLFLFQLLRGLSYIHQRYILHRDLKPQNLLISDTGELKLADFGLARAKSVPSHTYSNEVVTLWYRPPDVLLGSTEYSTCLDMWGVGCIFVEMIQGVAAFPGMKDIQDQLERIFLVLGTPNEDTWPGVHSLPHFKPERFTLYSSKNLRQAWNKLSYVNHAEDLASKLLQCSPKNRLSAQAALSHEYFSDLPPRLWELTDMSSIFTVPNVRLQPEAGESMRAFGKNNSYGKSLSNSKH

ROCK1 = ROCK1 (Homo sapiens, UniProt Q13464); conditions: for Percent inhibition of kinase labeling by ATP-biotin: A375 cells, 1 μM, 3 hours, ROCK1, labeling site Other; for inhibition at 1 µM: A-375, read-out: Percent inhibition of kinase labeling by ATP-biotin
ROCK1, sequence (Q13464 whole entry): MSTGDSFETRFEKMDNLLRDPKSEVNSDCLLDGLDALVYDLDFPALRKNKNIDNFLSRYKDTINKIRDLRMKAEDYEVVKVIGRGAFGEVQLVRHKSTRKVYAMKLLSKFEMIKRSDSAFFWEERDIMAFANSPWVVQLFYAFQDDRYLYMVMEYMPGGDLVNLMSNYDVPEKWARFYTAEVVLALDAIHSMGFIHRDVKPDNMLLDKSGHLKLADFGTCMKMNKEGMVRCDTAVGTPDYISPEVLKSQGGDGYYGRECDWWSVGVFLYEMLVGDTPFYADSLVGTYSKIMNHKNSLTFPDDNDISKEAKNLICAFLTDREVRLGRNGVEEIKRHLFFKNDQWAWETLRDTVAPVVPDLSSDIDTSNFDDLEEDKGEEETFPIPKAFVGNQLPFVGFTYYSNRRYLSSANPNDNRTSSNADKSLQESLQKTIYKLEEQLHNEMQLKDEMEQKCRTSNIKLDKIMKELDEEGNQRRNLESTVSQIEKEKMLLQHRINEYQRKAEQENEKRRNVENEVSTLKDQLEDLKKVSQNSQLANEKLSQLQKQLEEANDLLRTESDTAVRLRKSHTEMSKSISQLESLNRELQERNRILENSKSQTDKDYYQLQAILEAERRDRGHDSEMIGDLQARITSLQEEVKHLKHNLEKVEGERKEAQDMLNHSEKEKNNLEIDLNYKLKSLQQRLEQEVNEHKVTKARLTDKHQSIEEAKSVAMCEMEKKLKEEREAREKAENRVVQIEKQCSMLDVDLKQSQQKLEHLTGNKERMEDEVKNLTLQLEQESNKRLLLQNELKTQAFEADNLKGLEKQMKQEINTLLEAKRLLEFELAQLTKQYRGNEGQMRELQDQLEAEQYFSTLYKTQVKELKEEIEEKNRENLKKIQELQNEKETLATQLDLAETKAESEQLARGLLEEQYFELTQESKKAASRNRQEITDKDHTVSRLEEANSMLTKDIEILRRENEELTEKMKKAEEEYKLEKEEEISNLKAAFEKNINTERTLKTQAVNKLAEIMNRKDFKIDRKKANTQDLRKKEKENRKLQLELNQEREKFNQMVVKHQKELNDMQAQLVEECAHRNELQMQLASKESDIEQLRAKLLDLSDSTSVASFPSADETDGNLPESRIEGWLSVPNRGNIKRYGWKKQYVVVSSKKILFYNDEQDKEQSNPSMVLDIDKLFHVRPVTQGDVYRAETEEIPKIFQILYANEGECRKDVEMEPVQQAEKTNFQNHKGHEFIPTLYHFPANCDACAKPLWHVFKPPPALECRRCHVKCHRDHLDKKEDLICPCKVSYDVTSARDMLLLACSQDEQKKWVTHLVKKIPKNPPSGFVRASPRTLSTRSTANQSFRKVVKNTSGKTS

PKD1 = molecular target: T1, PKD1 (Homo sapiens, UniProt Q15139); conditions: for Percent inhibition of kinase labeling by ATP-biotin: A375 cells, 1 μM, 3 hours, PKD1, labeling site Lys1; for inhibition at 1 µM: A-375, read-out: Percent inhibition of kinase labeling by ATP-biotin
T1 sequence (Q15139 1-912): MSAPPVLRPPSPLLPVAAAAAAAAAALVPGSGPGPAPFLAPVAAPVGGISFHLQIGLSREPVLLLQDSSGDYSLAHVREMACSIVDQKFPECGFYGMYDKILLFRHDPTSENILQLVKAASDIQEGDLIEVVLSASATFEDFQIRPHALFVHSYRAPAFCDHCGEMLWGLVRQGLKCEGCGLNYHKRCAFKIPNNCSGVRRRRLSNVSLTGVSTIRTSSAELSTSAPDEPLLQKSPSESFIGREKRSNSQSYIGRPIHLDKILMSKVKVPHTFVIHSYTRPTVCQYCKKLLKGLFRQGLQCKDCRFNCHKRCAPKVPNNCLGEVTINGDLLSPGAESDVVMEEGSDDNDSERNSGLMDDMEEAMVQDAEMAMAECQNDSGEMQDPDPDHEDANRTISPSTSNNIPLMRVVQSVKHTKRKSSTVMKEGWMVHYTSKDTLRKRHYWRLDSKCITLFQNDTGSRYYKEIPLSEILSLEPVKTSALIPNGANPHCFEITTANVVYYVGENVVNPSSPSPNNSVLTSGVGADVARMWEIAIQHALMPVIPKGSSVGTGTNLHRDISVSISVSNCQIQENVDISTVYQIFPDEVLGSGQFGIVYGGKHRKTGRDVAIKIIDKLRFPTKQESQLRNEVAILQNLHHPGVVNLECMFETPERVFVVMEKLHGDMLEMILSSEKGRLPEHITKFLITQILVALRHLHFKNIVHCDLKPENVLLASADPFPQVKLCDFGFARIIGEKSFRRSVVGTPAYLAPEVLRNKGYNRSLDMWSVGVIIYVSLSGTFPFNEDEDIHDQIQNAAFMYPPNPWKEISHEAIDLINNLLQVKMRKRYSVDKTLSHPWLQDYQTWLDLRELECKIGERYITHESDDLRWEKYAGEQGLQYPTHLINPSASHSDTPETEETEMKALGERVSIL

PKD1,PKD2 = conditions: A375 cells, 1 μM, 3 hours; PKD1,PKD2, labeling site Lys2
MARK2,MARK3 = conditions: A375 cells, 1 μM, 3 hours; MARK2,MARK3, labeling site Lys2
PHKg2 = molecular target: T2, PHKg2 (Homo sapiens, UniProt P15735); conditions: for Percent inhibition of kinase labeling by ATP-biotin: A375 cells, 1 μM, 3 hours, PHKg2, labeling site Lys1; for inhibition at 1 µM: A-375, read-out: Percent inhibition of kinase labeling by ATP-biotin
T2 sequence (P15735 1-406): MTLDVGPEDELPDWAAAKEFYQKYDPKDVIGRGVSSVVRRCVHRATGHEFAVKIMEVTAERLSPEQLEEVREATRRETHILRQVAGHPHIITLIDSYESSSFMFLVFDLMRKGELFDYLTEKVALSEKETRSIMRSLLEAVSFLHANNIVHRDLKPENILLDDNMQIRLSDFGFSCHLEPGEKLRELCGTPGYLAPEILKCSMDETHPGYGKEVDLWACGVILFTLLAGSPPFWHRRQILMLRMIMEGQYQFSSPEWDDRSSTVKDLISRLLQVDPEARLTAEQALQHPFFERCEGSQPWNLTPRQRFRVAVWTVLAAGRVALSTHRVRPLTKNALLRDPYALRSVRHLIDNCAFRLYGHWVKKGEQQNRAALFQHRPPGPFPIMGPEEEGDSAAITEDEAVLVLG

TAO2 = molecular target: T3, TAO2 (Homo sapiens, UniProt Q9UL54); conditions: for Percent inhibition of kinase labeling by ATP-biotin: A375 cells, 1 μM, 3 hours, TAO2, labeling site Lys2; for inhibition at 1 µM: A-375, read-out: Percent inhibition of kinase labeling by ATP-biotin
T3 sequence (Q9UL54 1-1235): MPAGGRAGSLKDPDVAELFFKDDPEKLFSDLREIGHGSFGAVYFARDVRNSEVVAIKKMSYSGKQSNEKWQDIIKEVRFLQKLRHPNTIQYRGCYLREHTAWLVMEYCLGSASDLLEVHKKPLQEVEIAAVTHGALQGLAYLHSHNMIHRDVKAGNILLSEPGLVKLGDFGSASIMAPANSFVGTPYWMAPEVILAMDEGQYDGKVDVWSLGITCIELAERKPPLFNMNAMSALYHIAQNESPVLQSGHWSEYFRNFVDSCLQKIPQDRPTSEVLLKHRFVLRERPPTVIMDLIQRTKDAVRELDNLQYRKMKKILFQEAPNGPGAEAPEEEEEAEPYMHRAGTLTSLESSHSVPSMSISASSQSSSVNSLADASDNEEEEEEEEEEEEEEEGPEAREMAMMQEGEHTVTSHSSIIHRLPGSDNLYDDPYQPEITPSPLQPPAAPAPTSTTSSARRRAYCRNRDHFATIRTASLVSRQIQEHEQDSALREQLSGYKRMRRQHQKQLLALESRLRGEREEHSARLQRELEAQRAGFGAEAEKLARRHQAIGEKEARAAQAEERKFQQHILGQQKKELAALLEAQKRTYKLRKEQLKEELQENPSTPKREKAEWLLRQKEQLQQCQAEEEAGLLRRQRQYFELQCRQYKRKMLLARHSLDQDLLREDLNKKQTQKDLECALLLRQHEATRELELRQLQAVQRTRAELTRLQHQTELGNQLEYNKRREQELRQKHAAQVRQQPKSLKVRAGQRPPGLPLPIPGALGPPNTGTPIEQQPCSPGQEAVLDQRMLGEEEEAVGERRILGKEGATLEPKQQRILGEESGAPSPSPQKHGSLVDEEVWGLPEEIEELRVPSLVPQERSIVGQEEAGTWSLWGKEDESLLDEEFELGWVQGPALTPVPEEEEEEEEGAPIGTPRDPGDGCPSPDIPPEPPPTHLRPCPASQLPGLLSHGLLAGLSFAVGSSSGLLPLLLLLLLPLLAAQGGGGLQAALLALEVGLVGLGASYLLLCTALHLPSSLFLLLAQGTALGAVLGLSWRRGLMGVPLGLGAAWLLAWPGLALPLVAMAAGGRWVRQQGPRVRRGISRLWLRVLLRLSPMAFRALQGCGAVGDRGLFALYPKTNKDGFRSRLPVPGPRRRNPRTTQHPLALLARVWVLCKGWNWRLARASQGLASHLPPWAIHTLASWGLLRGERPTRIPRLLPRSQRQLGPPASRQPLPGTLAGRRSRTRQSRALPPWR

TAO1,TAO3 = conditions: A375 cells, 1 μM, 3 hours; TAO1,TAO3, labeling site Lys2

GSK3B, sequence (P49841 whole entry): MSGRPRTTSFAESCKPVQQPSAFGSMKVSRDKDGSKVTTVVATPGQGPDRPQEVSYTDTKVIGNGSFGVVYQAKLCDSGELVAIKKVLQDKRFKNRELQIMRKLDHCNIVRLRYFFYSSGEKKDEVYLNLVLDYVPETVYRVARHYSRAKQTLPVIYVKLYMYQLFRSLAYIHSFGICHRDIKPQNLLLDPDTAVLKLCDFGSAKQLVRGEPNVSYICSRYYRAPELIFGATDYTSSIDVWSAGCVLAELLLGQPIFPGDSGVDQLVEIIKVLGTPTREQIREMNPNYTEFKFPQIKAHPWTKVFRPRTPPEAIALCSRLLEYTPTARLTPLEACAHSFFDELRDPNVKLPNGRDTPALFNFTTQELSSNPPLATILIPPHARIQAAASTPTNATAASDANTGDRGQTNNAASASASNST

| SMILES | Percent inhibition of kinase labeling by ATP-biotin (GSK3B) | Percent inhibition of kinase labeling by ATP-biotin (PFTAIRE1) | Percent inhibition of kinase labeling by ATP-biotin (ROCK1) | Percent inhibition of kinase labeling by ATP-biotin (PKD1) | Percent inhibition of kinase labeling by ATP-biotin (PKD1,PKD2) | Percent inhibition of kinase labeling by ATP-biotin (MARK2,MARK3) | Percent inhibition of kinase labeling by ATP-biotin (PHKg2) | Percent inhibition of kinase labeling by ATP-biotin (TAO2) | Percent inhibition of kinase labeling by ATP-biotin (TAO1,TAO3) | inhibition at 1 µM (GSK3B) | inhibition at 1 µM (PFTAIRE1) | inhibition at 1 µM (ROCK1) | inhibition at 1 µM (PKD1) | inhibition at 1 µM (PHKg2) | inhibition at 1 µM (TAO2) |
| --- | --- | --- | --- | --- | --- | --- | --- | --- | --- | --- | --- | --- | --- | --- | --- |
| CN(C)C/C=C/C(=O)Nc1cccc(C(=O)Nc2ccc(Nc3nccc(/C(C#N)=C4\Nc5ccccc5S4)n3)cc2)c1 [JNK-IN-12] | −29.6% | 25.7% | −97% | −21.6% | −39.3% | −38.7% | −94.1% | −13% | −10.8% |  |  |  |  |  |  |
| Cc1cc(NC(=O)c2cccc(NC(=O)/C=C/CN(C)C)c2)ccc1Nc1nccc(-c2cccnc2)n1 [JNK-IN-8] |  |  |  |  | −3% | 13.9% |  |  | 2.9% | -8.5% | 38.1% | 10% | 8.6% | -0.8% | -21.6% |
| CCC(=O)Nc1cccc(C(=O)Nc2ccc(Nc3nccc(-c4cccnc4)n3)cc2)c1 [JNK-IN-6] | 23.6% | −6% | 24.4% | 28.7% | 15.9% | 22.9% | 28% | 22.5% | 35.8% |  |  |  |  |  |  |
| CN(C)C/C=C/C(=O)Nc1cccc(C(=O)Nc2ccc(Nc3nccc(-c4c(-c5ccccc5)nn5ccccc45)n3)cc2)c1 [JNK-IN-11] |  |  |  |  | 10.4% | 0.4% |  |  | 34.1% | 67.1% | 12.8% | -8.2% | 29.4% | -76% | 42.6% |
| CN(C)C/C=C/C(=O)Nc1cccc(C(=O)Nc2ccc(Nc3nccc(-c4cccnc4)n3)cc2)c1 [JNK-IN-7] |  |  |  |  | 18.2% | 26.5% |  |  | 13.1% | 12.3% | 75.3% | -11.9% | 2% | -7% | -3.7% |
